Drawing on patent publication US9018388B2, “Pesticidal compositions and processes related thereto” (Dow AgroSciences LLC, priority 2012, dated 2015), this text covers melting point for five compounds.

By melting point is commonly meant the temperature, or range, at which the solid turns liquid.

With `CC(C)c1ccccc1NC(=S)N/N=C/c1ccc(-c2ncn(-c3ccc4c(c3)OC(F)(F)O4)n2)cc1` [Compound I-36], the melting point was 200 °C (dec.).
For `CC(C)c1ccc(F)cc1NC(=S)NN` [Compound I-43] the value was 133 to 135 °C; for `CC(C)c1cc(F)ccc1NC(=S)NN` [Compound I-47], 163 to 217 °C; for `CC(C)c1c(F)cccc1NC(=S)NN` [Compound I-51], 158 to 160 °C.
The compound `CC(F)(F)c1ccc(-n2cnc(-c3ccc(C=O)cc3)n2)cc1` [Compound I-62] had a melting point of 139 to 141 °C.
